Test results reported in a melting point compilation (Tetko et al.; mined from patent text by program, amines drawn as free bases though some values may be those of a salt).

| melting point [°C] | SMILES |
| --- | --- |
| 191 to 193 | CCCc1ccccc1OCCCOc1ccc2c(=O)cc(-c3nnn[nH]3)oc2c1 |
| 60 to 61 | N#CCC(CC#N)c1cccnc1 |
| 174 to 175 | Cc1cc2oc(=O)c3c(c2cc1C)CCN(CCN1CC2CCC(CC2)C1)C3 |
| 187 to 188 | CCOC(=O)C1=C(C)NC(C)=C(C(=O)OCC)C1c1ccccc1/C=C/c1ccccc1 |
| > 200 | Nc1nc(C(=O)C(=O)O)cs1 |
| 131 to 132 | Cc1cc(S(=O)(=O)N(C)CC(O)(CO)c2cccc(Cl)n2)ccc1Cl (stereo not drawn) |
| 109 | CCN(C(=O)c1nn(-c2ccc(Cl)cc2Cl)c(-c2ccc(Cl)cc2)c1C)N1CC=CCC1 |
| 200 | O=C(O)CS(=O)(=O)CCCCCn1nc(-c2ccccc2)c(-c2ccccc2)c1-c1ccccc1 |
| 227 to 228 | CC(=O)Nc1cc(-c2c(-c3cccc(C)c3)nc3cccnn23)ccn1 |
| 194 to 198 | O=C(NC(O)C(=O)O)OCc1ccccc1 (stereo not drawn) |
| 85 to 86 | CN(C)c1ccc(S(=O)c2ccccc2)cc1N (stereo not drawn) |
| 80 to 81 | Cc1ccccc1Cn1cnc(C#N)c1C#N |
| 182 to 183 | Cc1cccc2n[nH]c(=O)n12 |
| 220 to 222 | Cc1nc2ccccc2cc1NC(=O)N1CCN(c2cccc3ccccc23)CC1 |
| 83.5 to 86 | C=CCNc1cc(OCC=C)c(C(=O)O)cc1Cl |
| 155 to 157 | Cn1ncnc1COc1nn2c(-c3ccccc3Cl)nncc2c1-c1ccccc1F |
| 102 to 105 | O=S(=O)(c1ccc(Cl)cc1)c1ccc(NCc2nnn[nH]2)cc1 |
| 207 to 208 | COc1ccc(N2CCN(Cc3n[nH]c4c3CCc3ccccc3-4)CC2)cc1 |
| 100 | Cc1cc(-n2ccnc2)c2cccc(OCc3c(Cl)ccc(S(=O)(=O)N4CCC[C@H]4C(=O)NCC4CCN(C(=O)OC(C)(C)C)CC4)c3Cl)c2n1 |
| 77 to 80 | Cc1ccc(S(=O)(=O)Oc2cc(Cl)c(C=O)c(Cl)c2)cc1 |
| 226 | CCCn1c(=O)n(C)c(=O)c2[nH]c(-c3cc(S(=O)(=O)NCCNC)ccc3OCC)c(Cl)c21 |
| 167 to 168 | CNCc1cccc(COc2nc(Cl)cnc2NS(=O)(=O)c2cccc(Cl)c2Cl)c1 |
| 96 to 97 | CCCCCCCCc1ccc(C(=O)CCCCC(=O)O)cc1 |
| 113 | COC(=O)C1=C(C(=O)OC)c2c(c3ccccc3n2C)CC1 |

| melting point [°C] | SMILES |
| --- | --- |
| 55 to 58 | CC1(C)c2cc(OCc3ccccc3)ccc2OC1CO (stereo not drawn) |
| 186 | O=c1ncc(Cl)cn1CSCc1ccccc1 |
| 176 | COC(=O)C1=C(C#N)NC(C)=C(C(=O)OC(C)C)C1c1ccccc1[N+](=O)[O-] (stereo not drawn) |
| 165 to 166 | COc1ccccc1Nc1nc(-c2ccccn2)cs1 |
| 125 to 127 | CS(=O)(=O)c1ccc(-n2nc(C(F)(F)F)cc2-c2ccc(-c3cscn3)cc2)cc1F |
| 204 to 206 | CCCOc1ccccc1-c1nc2nc(NCCO)ncc2c(=O)[nH]1 |
| 98 to 101 | CCCCCNC(=O)c1ccc(Cl)nn1 |
| 185 | Oc1ccc(CCCn2ccnc2S)cc1 |
| 227 to 229 | CCCC(C)C(=O)N1CC(NC(=O)Nc2cccc(C(=O)O)c2)C(=O)N(CC(=O)c2ccccc2C)c2cc(C)ccc21 (stereo not drawn) |
| 211 to 213 | CCC(NC(=O)C(F)F)c1ccc(Cl)c2nc3n(c12)CCCN3c1c(Cl)cc(Cl)cc1Cl (stereo not drawn) |
| 151 to 153 | CCOc1cc([C@@H](CS(C)(=O)=O)N2C(=O)c3cccc(NC(=O)COC)c3C2=O)ccc1OC |
| 172 | C(=C\c1nc2ccccc2n1-c1ccncc1)/c1ccoc1 |
| 216 to 218 | NS(=O)(=O)c1ccc(-n2nc(CNC(=O)NO)cc2-c2ccc(Cl)cc2)cc1 |
| 185 | COc1cc2c(cc1OC)CN(CC(=O)Nc1ccc(N)cc1)CC2 |
| 146 to 147 | O=C1C=C(CBr)C(=O)C(CCC2=CC(=O)C=C(CBr)C2=O)=C1 |
| 123 | CCc1cccc(CC(=O)O)c1OCCCc1cn(-c2ccc(Br)cn2)nc1C(CC)CC |
| 254 to 256 | Cc1cnc2nc(SCc3ccccc3)nn2c1 |
| 109 to 111 | NCC1(Cc2noc(=O)[nH]2)CCCCC1 |
| 133 to 135 | COC(=O)C(O)C(C)(Oc1ccc(Br)cc1)c1ccccc1 (stereo not drawn) |
| 83 to 85 | O=C(COCc1ccc(Cl)cc1Cl)c1ccccc1 |
| 80 to 81 | COP(=O)(Cc1ccc2ccccc2c1)OC |
| 195 to 196 | O=C1Nc2ccc(Cl)cc2C(C#CC2CC2)(C(F)(F)F)CN1C1CC1 (stereo not drawn) |
| 63 to 64 | O=[N+]([O-])c1c(Cl)nc2c(c1Cl)CCCC2 |
| 148 to 151 | Cc1cc(F)ccc1-c1nc(N[C@H]2CC[C@H](O)CC2)nc2c1ccc(=O)n2-c1ccccc1F |

| melting point [°C] | SMILES |
| --- | --- |
| 240 to 241 | CC(=O)N(C)c1ccc2sc3ccc(Br)cc3c(=O)c2c1 |
| 315 | O=C(O)N1CCN2c3sc4c(c3CN(c3ccccc3Cl)CC12)CC=C4 (stereo not drawn) |
| 228 to 230 | O=C(O)Cn1cc(Cc2nc3c(F)c(F)cc(F)c3s2)c2cccc(Cl)c21 |
| 191 to 193 | COc1cc2c(c3c1OC(C)(C)C3)C(c1cccc(C(N)=O)c1)=NCC2(C)C |
| 200 | COC(=O)c1cnc2cccc(O)c2c1 |
| 174 to 177 | CP(C)(=O)C(CC(=O)O)C(=O)O (stereo not drawn) |
| 160 | CC(C)(C)OC(=O)NCC1CCN(CC2(C(=O)O)CCC2)CC1 |
| 102 | CCCCC1SCC(C(=O)OC(C)(C)C)N1C(=O)CNC(=O)NCC(C(=O)O)c1ccccc1 (stereo not drawn) |
| 79 to 81 | CCOc1cc(OCCCc2cn(-c3cc(C(F)(F)F)ccn3)nc2OCC)ccc1CCC(=O)OC |
| 85 to 87.5 | O=C(O)c1ccc(CCOCCCCCCBr)cc1 |
| 248 to 250 | COc1ccc(Cc2ccc3[nH]c(=S)[nH]c3c2)cc1OC |
| 141 to 142 | Cc1ccc(Cc2cnc(NCCCCc3ncc([N+](=O)[O-])cc3C)[nH]c2=O)cn1 |
| 77 to 80 | O=C(CCN1C[C@@H](O)[C@H](Oc2ccccc2)C1)c1ccc(F)cc1 (relative stereo) |
| 58 to 62 | COc1cc(C)c2c(c1OC)CCCC2=O |
| 85 to 87 | O=C1C=C(OCCCCCCI)c2ccccc2C1=O |
| 91 to 92 | COC(=O)C[C@@H](SCc1ccccc1)C(=O)O |
| 151 to 152 | N#Cc1ccc(Cl)cc1NC(=O)c1ccc(Br)cc1 |
| 105 to 107 | CC(C)(C)NCC(O)COc1ccccc1-c1nc(C(F)(F)F)c[nH]1 (stereo not drawn) |
| 180 | CCOP(=O)(Cc1ccc(C(=S)Nc2nc3c(s2)Cc2c(Cl)cccc2-3)cc1)OCC |
| 77.5 to 80 | COc1csc2ccc(C(=O)CC(=O)C3CC3)c(OC)c12 |
| 148 to 149 | COC(=NC(=O)Nc1ccc(OC(F)(F)F)cc1)c1ccccc1Cl |
| 98 to 100 | CC(C)n1nc(C(Br)C(=O)c2ccccc2)ccc1=O (stereo not drawn) |
| 206 | CC1(C)NC(=O)N(CC(CS(=O)(=O)C2(C(F)(F)F)C=CC(c3ccccc3)=CC2)N(O)C=O)C1=O (stereo not drawn) |
| 127 to 128 | CS(=O)c1cc(-c2ccc(C(F)(F)F)cc2)ccc1C#N (stereo not drawn) |

| melting point [°C] | SMILES |
| --- | --- |
| 177 | COC(=O)c1cnc(S)n1C1CC(C)c2ccccc21 (stereo not drawn) |
| 205 | CN1C(=O)CC(c2ccc(CO)cc2)C1C(O)c1ccc(-c2ccccc2)s1 (stereo not drawn) |
| 219 to 221 | CC(C)c1ccc2c(c1)C(=O)c1ccc(-c3nnn(C)n3)cc1S2(=O)=O |
| 78 to 80 | N#CCc1nc(C(=O)c2ccc(F)cc2)no1 |
| 95 to 96 | CC1CCCN1CCCN1CCN(CCN2CCCC2)C1=C(C#N)C#N (stereo not drawn) |
| 149 to 151 | CCNC(=O)CN(C)C(=O)[C@H](C)NC(=O)CC |
| 120 to 122 | N#CC(=Cc1ccc(CBr)cc1)S(=O)(=O)c1ccccc1 |
| 191 to 196 | CC(=O)O[C@H]1C[C@@H](n2ccc(=O)cc2)[C@H](O)[C@@H]1O (racemic) |
| 96 | C=Cc1cccc2ccc(O)nc12 |
| 81.9 to 84.1 | Cc1cc(N(C)C)nc2ccc(Br)cc12 |
| 167 to 169 | COc1ccc(N)c2c1oc1ccccc12 |
| 112 to 115 | O=C(NCc1ccccc1)c1nn(-c2ccc(Cl)cc2)c2c1C1CCC2C1 (stereo not drawn) |
| 164 to 166 | CC(=O)c1c(C)nc2c(OCc3c(Cl)ccc(S(=O)(=O)N4CCC[C@H]4C(=O)NCCCNC(=O)c4ccc(C(N)=NO)cc4)c3Cl)cccn12 |
| 218 to 220 | COc1cccc(CNC(=O)c2nc3cccc(OCc4ccc(C#N)cc4)c3c(=O)[nH]2)c1 |
| 160 | CCCCc1nc(Cc2ccc(-c3ccccc3C(=O)O)cc2)c(CC(=O)O)c(Cc2ccc(-c3ccccc3C(=O)O)cc2)n1 |
| 110 to 111 | CCCN(CCC)Cc1coc(-c2ncn3c2CN(C)C(=O)c2sccc2-3)n1 |
| 213 to 214 | O=C(CCl)Nc1ccc2c(c1NC(=O)Cc1ccc(F)cc1)C(=O)c1ccccc1C2=O |
| 102 to 104 | CS(=O)(=O)c1ccccc1[N+](=O)[O-] |
| 98 | CC(C)(C)OC(=O)Nc1cc(CC#N)c(C#Cc2ccccc2)cc1NC(=O)CC(=O)c1cccc(C#N)c1 |
| 100 to 102 | CCCCCC(=N)NC(=S)Nc1ccc(Cl)cc1 |
| 153 to 154 | CCOCc1cc2cc(Br)ccc2oc1=Nc1ccc(F)cc1 |
| 96 to 97 | CCCCCCCCCCN(O)C(=O)NC |
| 110 to 119 | COc1nc(CO)c(CO)n1C |
| 112 to 113 | CC(=NN(C)c1ccc(C(F)(F)F)cc1)C(=O)NCc1ccc(Cl)cc1 |

| SMILES | melting point [°C] |
| --- | --- |
| O=C1C(O)N=C(c2ccccc2F)c2ccccc2N1C1CCNCC1 (stereo not drawn) | 190 to 192 |
| CN(C)C(=C[N+](=O)[O-])NCc1ccc(Cl)nc1 | 124 to 125 |
| CN1Cc2c(Cl)ncn2-c2cccc(Cl)c2C1=O | 211 to 212 |
| NC(=O)OCCN1Cc2ccccc2CCO1 | 110 to 111 |
| N#CC(C#N)=Cc1ccccc1F | 117 to 118 |
| CN(C)C1(c2ccccc2)CCC2(OCCc3c2[nH]c2ccccc32)C(Sc2ccccc2)C1 (stereo not drawn) | 228 to 233 |
| CC(C)c1cccc(C(C)C)c1OCC(=O)O | 84 to 87 |
